Test results reported in the kinase profiling compilation of Christmann-Franck et al. (2016).

Assays:
Experiment in all cases: KINOMEscan competition binding
Settings in all cases: compound 10.0 µM
ABL2 (human) = ABL2 (human) (UniProt P42684)
BMPR1A (human) = BMPR1A (human) (UniProt P36894)
CAMK1D (human) = CAMK1D (human) (UniProt Q8IU85)
CAMK2A (human) = CAMK2A (human) (UniProt Q9UQM7)
CAMK2G (human) = CAMK2G (human) (UniProt Q13555)
CAMKK1 (human) = CAMKK1 (human) (UniProt Q8N5S9)
CDK17 (human) = CDK17 (human) (UniProt Q00537)
CDK3 (human) = CDK3 (human) (UniProt Q00526)
DAPK3 (human) = DAPK3 (human) (UniProt O43293)
[1] = test system: EGFR (human), P00533 [G719C]
EPHA7 (human) = EPHA7 (human) (UniProt Q15375)
Chain of EPHA7 (human) (Q15375 whole entry, looked up): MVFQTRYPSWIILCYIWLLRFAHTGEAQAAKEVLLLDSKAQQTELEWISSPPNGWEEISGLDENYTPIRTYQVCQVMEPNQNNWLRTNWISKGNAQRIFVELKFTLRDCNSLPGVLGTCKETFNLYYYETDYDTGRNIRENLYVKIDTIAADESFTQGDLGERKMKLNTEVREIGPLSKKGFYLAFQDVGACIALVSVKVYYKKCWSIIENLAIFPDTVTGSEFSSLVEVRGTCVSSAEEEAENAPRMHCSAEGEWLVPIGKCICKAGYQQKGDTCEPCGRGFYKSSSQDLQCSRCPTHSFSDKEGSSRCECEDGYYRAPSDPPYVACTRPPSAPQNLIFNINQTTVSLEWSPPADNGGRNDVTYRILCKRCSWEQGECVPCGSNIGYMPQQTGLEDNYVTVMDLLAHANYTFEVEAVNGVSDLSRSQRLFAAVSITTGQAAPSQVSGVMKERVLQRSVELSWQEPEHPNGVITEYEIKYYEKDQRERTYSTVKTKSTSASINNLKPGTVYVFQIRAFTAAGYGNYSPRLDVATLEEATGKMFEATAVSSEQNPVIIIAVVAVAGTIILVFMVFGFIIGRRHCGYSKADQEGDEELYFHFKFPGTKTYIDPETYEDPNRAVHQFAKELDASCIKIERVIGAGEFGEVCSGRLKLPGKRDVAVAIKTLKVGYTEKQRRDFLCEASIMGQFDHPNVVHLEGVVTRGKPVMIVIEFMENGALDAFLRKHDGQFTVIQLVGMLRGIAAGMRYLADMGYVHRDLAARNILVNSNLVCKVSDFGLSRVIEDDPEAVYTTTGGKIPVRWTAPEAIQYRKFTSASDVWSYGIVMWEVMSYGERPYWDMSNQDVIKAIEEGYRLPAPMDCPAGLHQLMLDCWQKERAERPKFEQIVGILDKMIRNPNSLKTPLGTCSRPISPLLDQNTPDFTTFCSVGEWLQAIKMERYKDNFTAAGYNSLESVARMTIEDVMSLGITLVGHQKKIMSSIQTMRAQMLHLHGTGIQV

EPHB1 (human) = EPHB1 (human) (UniProt P54762)
FGFR3 (human) = FGFR3 (human) (UniProt P22607)
[2] = test system: FLT3 (human), P36888 [D835Y]
HIPK3 (human) = HIPK3 (human) (UniProt Q9H422)
IKBKB (human) = IKBKB (human) (UniProt O14920)
MAP3K13 (human) = MAP3K13 (human) (UniProt O43283)
MAP3K5 (human) = MAP3K5 (human) (UniProt Q99683)
MAP4K4 (human) = MAP4K4 (human) (UniProt O95819)
MARK2 (human) = MARK2 (human) (UniProt Q7KZI7)
MERTK (human) = MERTK (human) (UniProt Q12866)
NEK2 (human) = NEK2 (human) (UniProt P51955)
NEK4 (human) = NEK4 (human) (UniProt P51957)
NEK6 (human) = NEK6 (human) (UniProt Q9HC98)
OXSR1 (human) = OXSR1 (human) (UniProt O95747)
Chain of OXSR1 (human) (O95747 whole entry, looked up): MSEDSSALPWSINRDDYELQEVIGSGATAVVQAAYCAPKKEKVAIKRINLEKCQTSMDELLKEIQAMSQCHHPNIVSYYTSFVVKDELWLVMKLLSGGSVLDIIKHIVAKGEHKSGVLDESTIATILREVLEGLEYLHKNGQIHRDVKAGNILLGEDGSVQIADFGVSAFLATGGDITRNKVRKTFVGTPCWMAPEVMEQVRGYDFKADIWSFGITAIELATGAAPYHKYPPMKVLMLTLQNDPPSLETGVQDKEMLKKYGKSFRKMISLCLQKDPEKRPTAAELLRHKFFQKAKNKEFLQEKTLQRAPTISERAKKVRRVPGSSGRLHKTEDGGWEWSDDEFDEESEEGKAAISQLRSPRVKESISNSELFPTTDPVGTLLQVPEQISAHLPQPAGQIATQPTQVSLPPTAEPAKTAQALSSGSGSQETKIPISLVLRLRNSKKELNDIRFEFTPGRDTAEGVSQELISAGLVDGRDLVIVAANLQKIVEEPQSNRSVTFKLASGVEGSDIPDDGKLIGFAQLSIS

PDGFRA (human) = PDGFRA (human) (UniProt P16234)
PIK3CD (human) = PIK3CD (human) (UniProt O00329)
Chain of PIK3CD (human) (O00329 whole entry, looked up): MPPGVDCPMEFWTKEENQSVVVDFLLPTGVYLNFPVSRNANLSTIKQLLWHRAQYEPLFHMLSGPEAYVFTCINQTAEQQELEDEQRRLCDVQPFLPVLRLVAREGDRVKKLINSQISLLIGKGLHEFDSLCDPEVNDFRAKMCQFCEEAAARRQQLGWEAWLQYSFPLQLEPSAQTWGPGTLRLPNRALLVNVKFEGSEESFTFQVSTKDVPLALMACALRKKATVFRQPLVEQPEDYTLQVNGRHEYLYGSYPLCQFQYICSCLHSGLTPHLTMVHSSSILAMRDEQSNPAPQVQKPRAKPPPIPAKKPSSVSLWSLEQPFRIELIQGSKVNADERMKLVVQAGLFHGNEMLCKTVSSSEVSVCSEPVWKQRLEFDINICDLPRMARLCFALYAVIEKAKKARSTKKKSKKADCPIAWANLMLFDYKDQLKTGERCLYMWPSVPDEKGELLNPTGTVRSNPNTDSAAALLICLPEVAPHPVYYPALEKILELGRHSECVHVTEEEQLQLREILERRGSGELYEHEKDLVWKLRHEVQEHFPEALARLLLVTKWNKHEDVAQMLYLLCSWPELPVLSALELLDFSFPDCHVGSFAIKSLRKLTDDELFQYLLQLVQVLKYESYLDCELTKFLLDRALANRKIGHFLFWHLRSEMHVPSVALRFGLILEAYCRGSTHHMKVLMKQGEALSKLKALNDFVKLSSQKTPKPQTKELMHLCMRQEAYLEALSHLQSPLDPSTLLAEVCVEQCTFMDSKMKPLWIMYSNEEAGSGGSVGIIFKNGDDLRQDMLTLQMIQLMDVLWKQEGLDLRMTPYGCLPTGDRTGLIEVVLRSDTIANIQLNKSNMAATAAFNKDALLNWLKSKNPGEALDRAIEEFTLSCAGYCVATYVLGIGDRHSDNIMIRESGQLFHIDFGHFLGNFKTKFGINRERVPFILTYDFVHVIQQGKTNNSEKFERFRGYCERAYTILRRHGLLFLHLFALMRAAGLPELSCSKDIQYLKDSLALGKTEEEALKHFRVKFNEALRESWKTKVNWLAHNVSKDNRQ

PKMYT1 (human) = PKMYT1 (human) (UniProt Q99640)
PRKCE (human) = PRKCE (human) (UniProt Q02156)
PRKCH (human) = PRKCH (human) (UniProt P24723)
RET (human) = RET (human) (UniProt P07949)
Chain of RET (human) (P07949 whole entry, looked up): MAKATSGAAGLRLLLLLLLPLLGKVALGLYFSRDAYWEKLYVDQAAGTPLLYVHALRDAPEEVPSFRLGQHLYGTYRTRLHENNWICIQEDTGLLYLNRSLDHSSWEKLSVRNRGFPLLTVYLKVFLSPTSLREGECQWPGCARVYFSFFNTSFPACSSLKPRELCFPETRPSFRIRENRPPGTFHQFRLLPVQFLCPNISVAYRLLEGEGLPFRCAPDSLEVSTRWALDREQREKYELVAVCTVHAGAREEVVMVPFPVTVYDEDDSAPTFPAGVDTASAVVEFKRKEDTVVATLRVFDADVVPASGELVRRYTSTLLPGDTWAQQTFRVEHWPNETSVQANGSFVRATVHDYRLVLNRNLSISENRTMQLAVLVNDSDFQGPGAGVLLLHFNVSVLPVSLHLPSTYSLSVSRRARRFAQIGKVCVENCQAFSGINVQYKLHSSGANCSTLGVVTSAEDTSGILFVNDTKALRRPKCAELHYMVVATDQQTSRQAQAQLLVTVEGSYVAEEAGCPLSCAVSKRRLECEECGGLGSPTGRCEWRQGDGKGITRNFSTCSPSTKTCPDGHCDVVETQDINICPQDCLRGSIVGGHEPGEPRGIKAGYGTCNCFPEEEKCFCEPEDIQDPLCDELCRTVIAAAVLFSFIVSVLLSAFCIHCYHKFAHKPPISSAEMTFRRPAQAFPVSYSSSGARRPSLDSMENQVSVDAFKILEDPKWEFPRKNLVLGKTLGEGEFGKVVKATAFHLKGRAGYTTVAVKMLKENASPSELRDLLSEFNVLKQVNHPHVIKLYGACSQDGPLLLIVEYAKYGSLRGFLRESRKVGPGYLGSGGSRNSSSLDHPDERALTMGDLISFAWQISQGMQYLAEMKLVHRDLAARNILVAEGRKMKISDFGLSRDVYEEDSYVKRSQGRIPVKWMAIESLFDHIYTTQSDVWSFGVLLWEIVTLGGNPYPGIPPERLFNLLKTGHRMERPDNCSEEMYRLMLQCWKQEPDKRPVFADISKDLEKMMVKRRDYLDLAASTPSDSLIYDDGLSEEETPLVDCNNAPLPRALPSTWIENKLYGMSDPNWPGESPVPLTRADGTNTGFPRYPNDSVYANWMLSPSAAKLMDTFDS

RIPK4 (human) = RIPK4 (human) (UniProt P57078)
ROCK1 (human) = ROCK1 (human) (UniProt Q13464)
SIK2 (human) = SIK2 (human) (UniProt Q9H0K1)
Chain of SIK2 (human) (Q9H0K1 whole entry, looked up): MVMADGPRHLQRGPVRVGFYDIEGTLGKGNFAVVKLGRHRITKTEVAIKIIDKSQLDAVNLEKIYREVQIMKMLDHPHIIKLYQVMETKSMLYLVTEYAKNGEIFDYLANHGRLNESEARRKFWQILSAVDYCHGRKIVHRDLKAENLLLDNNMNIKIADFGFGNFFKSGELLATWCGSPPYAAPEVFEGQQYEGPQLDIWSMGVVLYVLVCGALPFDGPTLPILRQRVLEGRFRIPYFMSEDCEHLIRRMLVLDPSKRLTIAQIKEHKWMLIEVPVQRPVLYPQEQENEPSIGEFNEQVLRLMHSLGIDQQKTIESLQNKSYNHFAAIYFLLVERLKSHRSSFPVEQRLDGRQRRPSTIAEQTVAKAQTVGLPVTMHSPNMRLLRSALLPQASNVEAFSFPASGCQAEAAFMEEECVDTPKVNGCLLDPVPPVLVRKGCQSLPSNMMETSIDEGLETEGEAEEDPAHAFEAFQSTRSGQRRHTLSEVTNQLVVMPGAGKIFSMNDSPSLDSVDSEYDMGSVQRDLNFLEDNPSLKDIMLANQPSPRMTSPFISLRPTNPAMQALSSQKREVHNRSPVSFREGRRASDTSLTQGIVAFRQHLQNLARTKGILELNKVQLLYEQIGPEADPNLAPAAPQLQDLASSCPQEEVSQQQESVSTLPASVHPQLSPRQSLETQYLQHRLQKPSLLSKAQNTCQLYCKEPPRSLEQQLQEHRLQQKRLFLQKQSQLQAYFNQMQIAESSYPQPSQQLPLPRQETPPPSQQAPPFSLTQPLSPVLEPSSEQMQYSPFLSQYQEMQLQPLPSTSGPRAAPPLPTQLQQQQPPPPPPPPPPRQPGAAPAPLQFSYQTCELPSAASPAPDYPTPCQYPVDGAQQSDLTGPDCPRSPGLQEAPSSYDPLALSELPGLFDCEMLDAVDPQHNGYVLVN

SLK (human) = SLK (human) (UniProt Q9H2G2)
SNRK (human) = SNRK (human) (UniProt Q9NRH2)
SRPK1 (human) = SRPK1 (human) (UniProt Q96SB4)
STK17A (human) = STK17A (human) (UniProt Q9UEE5)
Chain of STK17A (human) (Q9UEE5 whole entry, looked up): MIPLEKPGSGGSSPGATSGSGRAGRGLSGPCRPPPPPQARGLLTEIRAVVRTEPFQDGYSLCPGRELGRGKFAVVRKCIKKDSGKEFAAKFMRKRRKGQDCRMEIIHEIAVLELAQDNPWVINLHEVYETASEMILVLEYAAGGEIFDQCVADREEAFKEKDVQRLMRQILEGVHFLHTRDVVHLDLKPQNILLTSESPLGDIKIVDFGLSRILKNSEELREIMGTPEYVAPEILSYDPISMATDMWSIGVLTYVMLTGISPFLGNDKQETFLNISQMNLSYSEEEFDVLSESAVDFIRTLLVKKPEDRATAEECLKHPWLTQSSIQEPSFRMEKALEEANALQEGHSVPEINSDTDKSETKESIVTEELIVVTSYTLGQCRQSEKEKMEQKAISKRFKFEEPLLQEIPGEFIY

TGFBR1 (human) = TGFBR1 (human) (UniProt P36897)
TXK (human) = TXK (human) (UniProt P42681)

CC1=C(C(=O)Nc2cc3cn[nH]c3cc2F)C(c2ccc(C(F)(F)F)cc2)CC(=O)N1 (stereo not drawn)
kinase still bound, per cent of control (ABL2 (human)): 86%
kinase still bound, per cent of control (BMPR1A (human)): 17%
kinase still bound, per cent of control (CAMK1D (human)): 97%
kinase still bound, per cent of control (CAMK2A (human)): 100%
kinase still bound, per cent of control (CAMK2G (human)): 97%
kinase still bound, per cent of control (CAMKK1 (human)): 72%
kinase still bound, per cent of control (CDK17 (human)): 91%
kinase still bound, per cent of control (CDK3 (human)): 77%
kinase still bound, per cent of control (DAPK3 (human)): 77%
kinase still bound, per cent of control [1]: 37%
kinase still bound, per cent of control (EPHA7 (human)): 80%
kinase still bound, per cent of control (EPHB1 (human)): 91%
kinase still bound, per cent of control (FGFR3 (human)): 81%
kinase still bound, per cent of control [2]: 74%
kinase still bound, per cent of control (HIPK3 (human)): 85%
kinase still bound, per cent of control (IKBKB (human)): 86%
kinase still bound, per cent of control (MAP3K13 (human)): 83%
kinase still bound, per cent of control (MAP3K5 (human)): 100%
kinase still bound, per cent of control (MAP4K4 (human)): 78%
kinase still bound, per cent of control (MARK2 (human)): 99%
kinase still bound, per cent of control (MERTK (human)): 91%
kinase still bound, per cent of control (NEK2 (human)): 100%
kinase still bound, per cent of control (NEK4 (human)): 85%
kinase still bound, per cent of control (NEK6 (human)): 70%
kinase still bound, per cent of control (OXSR1 (human)): 92%
kinase still bound, per cent of control (PDGFRA (human)): 84%
kinase still bound, per cent of control (PIK3CD (human)): 98%
kinase still bound, per cent of control (PKMYT1 (human)): 100%
kinase still bound, per cent of control (PRKCE (human)): 100%
kinase still bound, per cent of control (PRKCH (human)): 35%
kinase still bound, per cent of control (RET (human)): 20%
kinase still bound, per cent of control (RIPK4 (human)): 98%
kinase still bound, per cent of control (ROCK1 (human)): 0.3%
kinase still bound, per cent of control (SIK2 (human)): 99%
kinase still bound, per cent of control (SLK (human)): 100%
kinase still bound, per cent of control (SNRK (human)): 100%
kinase still bound, per cent of control (SRPK1 (human)): 100%
kinase still bound, per cent of control (STK17A (human)): 95%
kinase still bound, per cent of control (TGFBR1 (human)): 100%
kinase still bound, per cent of control (TXK (human)): 83%

CCN(CCO)CCCOc1ccc2c(Nc3cc(CC(=O)Nc4cccc(F)c4)[nH]n3)ncnc2c1
kinase still bound, per cent of control (BMPR1A (human)): 29%
kinase still bound, per cent of control (CAMK1D (human)): 83%
kinase still bound, per cent of control (CAMK2A (human)): 78%
kinase still bound, per cent of control (CAMK2G (human)): 100%
kinase still bound, per cent of control (CAMKK1 (human)): 71%
kinase still bound, per cent of control (CDK17 (human)): 73%
kinase still bound, per cent of control (CDK3 (human)): 95%
kinase still bound, per cent of control (DAPK3 (human)): 82%
kinase still bound, per cent of control (EPHA7 (human)): 74%
kinase still bound, per cent of control (EPHB1 (human)): 98%
kinase still bound, per cent of control (FGFR3 (human)): 92%
kinase still bound, per cent of control (HIPK3 (human)): 29%
kinase still bound, per cent of control (IKBKB (human)): 91%
kinase still bound, per cent of control (MAP3K13 (human)): 100%
kinase still bound, per cent of control (MAP3K5 (human)): 100%
kinase still bound, per cent of control (MAP4K4 (human)): 98%
kinase still bound, per cent of control (MARK2 (human)): 80%
kinase still bound, per cent of control (MERTK (human)): 77%
kinase still bound, per cent of control (NEK2 (human)): 83%
kinase still bound, per cent of control (NEK4 (human)): 40%
kinase still bound, per cent of control (OXSR1 (human)): 100%
kinase still bound, per cent of control (PDGFRA (human)): 0%
kinase still bound, per cent of control (PIK3CD (human)): 88%
kinase still bound, per cent of control (PKMYT1 (human)): 84%
kinase still bound, per cent of control (PRKCE (human)): 100%
kinase still bound, per cent of control (PRKCH (human)): 100%
kinase still bound, per cent of control (RET (human)): 0.25%
kinase still bound, per cent of control (RIPK4 (human)): 41%
kinase still bound, per cent of control (ROCK1 (human)): 67%
kinase still bound, per cent of control (SIK2 (human)): 70%
kinase still bound, per cent of control (SLK (human)): 64%
kinase still bound, per cent of control (SNRK (human)): 100%
kinase still bound, per cent of control (SRPK1 (human)): 100%
kinase still bound, per cent of control (STK17A (human)): 46%
kinase still bound, per cent of control (TGFBR1 (human)): 98%
kinase still bound, per cent of control (TXK (human)): 100%

CC(=O)c1c(C)c2cnc(Nc3ccc(N4CCNCC4)cn3)nc2n(C2CCCC2)c1=O
kinase still bound, per cent of control (ABL2 (human)): 97%
kinase still bound, per cent of control (BMPR1A (human)): 42%
kinase still bound, per cent of control (CAMK1D (human)): 7.3%
kinase still bound, per cent of control (CAMK2A (human)): 3.2%
kinase still bound, per cent of control (CAMK2G (human)): 11%
kinase still bound, per cent of control (CAMKK1 (human)): 20%
kinase still bound, per cent of control (CDK17 (human)): 2.7%
kinase still bound, per cent of control (CDK3 (human)): 74%
kinase still bound, per cent of control (DAPK3 (human)): 0.45%
kinase still bound, per cent of control [2]: 1.6%
kinase still bound, per cent of control (HIPK3 (human)): 2.1%
kinase still bound, per cent of control (IKBKB (human)): 80%
kinase still bound, per cent of control (MAP3K13 (human)): 82%
kinase still bound, per cent of control (MAP4K4 (human)): 23%
kinase still bound, per cent of control (MARK2 (human)): 28%
kinase still bound, per cent of control (MERTK (human)): 39%
kinase still bound, per cent of control (NEK2 (human)): 31%
kinase still bound, per cent of control (NEK4 (human)): 20%
kinase still bound, per cent of control (NEK6 (human)): 69%
kinase still bound, per cent of control (OXSR1 (human)): 81%
kinase still bound, per cent of control (PIK3CD (human)): 28%
kinase still bound, per cent of control (PKMYT1 (human)): 77%
kinase still bound, per cent of control (PRKCE (human)): 67%
kinase still bound, per cent of control (RET (human)): 71%
kinase still bound, per cent of control (RIPK4 (human)): 79%
kinase still bound, per cent of control (ROCK1 (human)): 30%
kinase still bound, per cent of control (SIK2 (human)): 63%
kinase still bound, per cent of control (SNRK (human)): 94%

N#C/C(=C1/Nc2ccccc2S1)c1ccnc(NCCc2cccnc2)n1
kinase still bound, per cent of control (ABL2 (human)): 100%
kinase still bound, per cent of control (BMPR1A (human)): 98%
kinase still bound, per cent of control (CAMK1D (human)): 70%
kinase still bound, per cent of control (CAMK2A (human)): 46%
kinase still bound, per cent of control (CAMK2G (human)): 78%
kinase still bound, per cent of control (CAMKK1 (human)): 83%
kinase still bound, per cent of control (CDK17 (human)): 98%
kinase still bound, per cent of control (CDK3 (human)): 100%
kinase still bound, per cent of control (DAPK3 (human)): 45%
kinase still bound, per cent of control (EPHA7 (human)): 99%
kinase still bound, per cent of control (EPHB1 (human)): 100%
kinase still bound, per cent of control (FGFR3 (human)): 92%
kinase still bound, per cent of control [2]: 53%
kinase still bound, per cent of control (HIPK3 (human)): 0.25%
kinase still bound, per cent of control (IKBKB (human)): 68%
kinase still bound, per cent of control (MAP3K13 (human)): 100%
kinase still bound, per cent of control (MAP3K5 (human)): 100%
kinase still bound, per cent of control (MAP4K4 (human)): 93%
kinase still bound, per cent of control (MARK2 (human)): 75%
kinase still bound, per cent of control (MERTK (human)): 100%
kinase still bound, per cent of control (NEK2 (human)): 96%
kinase still bound, per cent of control (NEK4 (human)): 100%
kinase still bound, per cent of control (NEK6 (human)): 100%
kinase still bound, per cent of control (OXSR1 (human)): 62%
kinase still bound, per cent of control (PDGFRA (human)): 100%
kinase still bound, per cent of control (PIK3CD (human)): 78%
kinase still bound, per cent of control (PKMYT1 (human)): 95%
kinase still bound, per cent of control (PRKCE (human)): 92%
kinase still bound, per cent of control (PRKCH (human)): 100%
kinase still bound, per cent of control (RET (human)): 100%
kinase still bound, per cent of control (RIPK4 (human)): 8%
kinase still bound, per cent of control (ROCK1 (human)): 37%
kinase still bound, per cent of control (SIK2 (human)): 82%
kinase still bound, per cent of control (SLK (human)): 100%
kinase still bound, per cent of control (SNRK (human)): 2.7%
kinase still bound, per cent of control (SRPK1 (human)): 70%
kinase still bound, per cent of control (STK17A (human)): 100%
kinase still bound, per cent of control (TGFBR1 (human)): 100%
kinase still bound, per cent of control (TXK (human)): 61%
